Experimental findings from patent US20220363665A1, “QUINOLINE COMPOUNDS FOR THE TREATMENT OF AUTOIMMUNE DISEASE” (Hoffmann-La Roche Inc., priority 2019, published 2022) are described below.

Molecules are shown by their SMILES. Converted amounts (≈) assume the structure as drawn.

One series deals with T1, human TLR7 (Homo sapiens, UniProt Q9NYK1).
T1 construct: host or cells: HEK293 (HEK-Blue hTLR7)
T1 sequence (Q9NYK1 27-1049): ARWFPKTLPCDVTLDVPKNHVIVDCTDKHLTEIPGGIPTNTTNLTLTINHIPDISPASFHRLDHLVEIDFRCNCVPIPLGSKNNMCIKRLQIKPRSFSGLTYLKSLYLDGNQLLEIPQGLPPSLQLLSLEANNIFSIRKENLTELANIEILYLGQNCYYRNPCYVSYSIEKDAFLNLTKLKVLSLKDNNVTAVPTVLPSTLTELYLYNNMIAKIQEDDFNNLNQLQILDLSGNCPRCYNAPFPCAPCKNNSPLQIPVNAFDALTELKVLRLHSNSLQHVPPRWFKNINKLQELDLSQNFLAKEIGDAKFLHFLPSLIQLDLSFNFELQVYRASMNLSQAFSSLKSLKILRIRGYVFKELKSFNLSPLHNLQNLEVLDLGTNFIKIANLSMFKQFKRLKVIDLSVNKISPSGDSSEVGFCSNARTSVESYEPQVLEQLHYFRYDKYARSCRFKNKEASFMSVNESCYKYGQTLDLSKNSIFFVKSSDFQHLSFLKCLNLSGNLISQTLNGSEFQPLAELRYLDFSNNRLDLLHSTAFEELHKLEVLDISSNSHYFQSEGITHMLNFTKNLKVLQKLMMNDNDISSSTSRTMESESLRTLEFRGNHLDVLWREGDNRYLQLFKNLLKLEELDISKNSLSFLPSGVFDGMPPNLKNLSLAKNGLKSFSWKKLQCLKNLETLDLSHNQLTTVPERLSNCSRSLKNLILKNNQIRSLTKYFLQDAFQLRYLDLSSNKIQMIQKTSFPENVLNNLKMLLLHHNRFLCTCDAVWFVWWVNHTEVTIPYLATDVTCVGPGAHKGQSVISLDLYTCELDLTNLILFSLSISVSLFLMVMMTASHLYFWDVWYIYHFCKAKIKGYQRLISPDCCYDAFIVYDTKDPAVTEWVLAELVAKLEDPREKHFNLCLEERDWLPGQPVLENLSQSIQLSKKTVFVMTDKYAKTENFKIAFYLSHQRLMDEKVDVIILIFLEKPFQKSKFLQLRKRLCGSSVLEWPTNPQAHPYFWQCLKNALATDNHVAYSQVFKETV
In words: HEK293-Blue-hTLR-7 cells assay (SEAP reporter, R848 stimulation). Format: cell-based. Conditions: HEK293-Blue-hTLR7 cells, R848, 20 hrs. The procedure:
The following tests were carried out in order to determine the activity of the compounds of formula (I) in HEK293-Blue-hTLR-7/8/9 cells assay.
HEK293-Blue-hTLR-7 Cells Assay:
A stable HEK293-Blue-hTLR-7 cell line was purchased from InvivoGen (Cat. #: hkb-htlr7, San Diego, Calif. USA). These cells were originally designed for studying the stimulation of human TLR7 by monitoring the activation of NF-κB. A SEAP (secreted embryonic alkaline phosphatase) reporter gene was placed under the control of the IFN-β minimal promoter fused to five NF-κB and AP-1-binding sites. The SEAP was induced by activating NF-κB and AP-1 via stimulating HEK-Blue hTLR7 cells with TLR7 ligands. Therefore the reporter expression was declined by TLR7 antagonist under the stimulation of a ligand, such as R848 (Resiquimod), for incubation of 20 hrs. The cell culture supernatant SEAP reporter activity was determined using QUANTI-Blue™ kit (Cat. #: rep-qbl, Invivogen, San Diego, Calif., USA) at a wavelength of 640 nm, a detection medium that turns purple or blue in the presence of alkaline phosphatase.
HEK293-Blue-hTLR7 cells were incubated at a density of 250,000˜450,000 cells/mL in a volume of 170 μL in a 96-well plate in Dulbecco's Modified Eagle's medium (DMEM) containing 4.5 g/L glucose, 50 U/mL penicillin, […], […], 2 mM L-glutamine, 10% (v/v) heat-inactivated fetal bovine serum with addition of 20 μL A test compound in a serial dilution in the presence of final DMSO at 1% and 10 μL of 20 uM R848 in above DMEM, perform incubation under 37° C. in a CO2 incubator for 20 hrs. Then 20 μL of the supernatant from each well was incubated with 180 μQuanti-blue substrate solution at 37° C. for 2 hrs and the absorbance was read at 620˜655 nm using a spectrophotometer. The signalling pathway that TLR7 activation leads to downstream NF-κB activation has been widely accepted, and therefore similar reporter assay was modified for evaluating TLR7 antagonist.

The nature of another series: LYSA solubility assay. Format: physicochemical. The conditions noted are these: for solubility thermodynamic: 0.05 M phosphate buffer, pH 6.5, aqueous buffer, thermodynamic from solid. The procedure: LYSA study is used to determine the aqueous solubility of tested compounds. Samples are prepared in duplicate from 10 mM DMSO stock solution. After evaporation of DMSO with a centrifugal vacuum evaporator, compounds are dissolved in a 0.05 M phosphate buffer (pH 6.5), stirred for one hr and shaken for two hrs. After one night, the solutions are filtered using a microtiter filter plate. Then the filtrate and its 1/10 dilution are analyzed by HPLC-UV. In addition, a four-point calibration curve is prepared from the 10 mM stock solutions and used for the solubility determination of the compounds. The results are in μg/mL. In case the percentage of sample measured in solution after evaporation divided by the calculated maximum of sample amount is bigger than 80%, the solubility is reported as bigger than this value.

With `Cc1ccc(N2C[C@@H](C)O[C@@H](C(=O)N[C@@H]3CNC[C@@H]3F)C2)c2cccnc12` [Example 21, cis-(2R,6R)-N-14-fluoropyrrolidin-3-yl1-6-methyl-4-(8-methyl-5-quinolyl)morpholine-2carboxamide], on human TLR7, half-maximal inhibition (IC50) was put at 71 nM. The solubility (thermodynamic) in the series “LYSA solubility assay” was greater than 435 µg/mL.

At human TLR7, `C[C@@H]1CN(c2ccc(C(F)(F)F)c3ncccc23)C[C@H](C(=O)NCCN2CCOCC2)O1` [Example 13, (2R,6R)-6-methyl-N-(2-morpholinoethyl)-4-[8-(trifluoromethyl)-5-quinolyl]morpholine-2-carboxamide] showed an IC50 of 290 nM. In addition, the solubility (thermodynamic) in “LYSA solubility assay” is greater than 725 µg/mL.

At human TLR7, `C[C@@H]1CN(c2ccc(C(F)(F)F)c3ncccc23)C[C@H](C(=O)NCC(C)(C)N)O1` [Example 6, (2R,6R)-N-(2-amino-2-methyl-propyl)-6-methyl-4-[8-(trifluoromethyl)-5-quinolyl]morpholine-2-carboxamide] returned a half-maximal inhibitory concentration (IC50) of 31 nM. The same compound came in with a solubility (thermodynamic) in the series “LYSA solubility assay” greater than 640 µg/mL.

Take `C[C@@H]1CN(c2ccc([N+](=O)[O-])c3ncccc23)C[C@H](C(=O)NC2CCN(C)CC2)O1` [Example 20, (2R,6R)-6-methyl-N-(1-methyl-4-piperidyl)-4-(8-nitro-5-quinolyl)morpholine-2-carboxamide]: on human TLR7, half-maximal inhibition (IC50) was put at 2 nM. Moreover, the thermodynamic solubility in the series “LYSA solubility assay” was greater than 515 µg/mL.

With `C#Cc1ccc(N2C[C@@H](C)O[C@@H](C(=O)NC3CCN(C)CC3)C2)c2cccnc12` [Example 43, (2R,6R)-4-(8-ethynyl-5-quinolyl)-6-methyl-N-(1-methyl-4-piperidyl)morpholine-2-carboxamide], 10 nM corresponded to half-maximal inhibition on human TLR7 (IC50). The same compound registered a solubility (thermodynamic) in “LYSA solubility assay” greater than 560 µg/mL.

With `C[C@@H]1CN(c2ccc(Cl)c3ncccc23)C[C@H](C(=O)NCC2CN(C)CCO2)O1` (stereo partly drawn) [Example 26, (2R,6R)-4-(8-chloro-5-quinolyl)-6-methyl-N-[(4-methylmorpholin-2-yl)methyl]morpholine-2-carboxamide], it took 23 nM to reach half-maximal inhibition at human TLR7 (IC50). The compound further had a thermodynamic solubility in the series “LYSA solubility assay” greater than 520 µg/mL.

In turn, `C[C@@H]1CN(c2ccc(C(F)(F)F)c3ncccc23)C[C@H](C(=O)NC2CNCCOC2)O1` (stereo partly drawn) [Example 14, (2R,6R)-6-methyl-N-(1,4-oxazepan-6-yl)-4-[8-(trifluoromethyl)-5-quinolyl]morpholine-2-carboxamide] yielded an IC50 on human TLR7 of 37 nM. This compound also had a solubility (thermodynamic) in the series “LYSA solubility assay” greater than 695 µg/mL.

For `C[C@@H]1CN(c2ccc(C(F)(F)F)c3ncccc23)C[C@H](C(=O)NC2C3CCC2CNC3)O1` (stereo partly drawn) [Example 31, (2R,6R)-N-(3-azabicyclo[3.2.1]octan-8-yl)-6-methyl-4-[8-(trifluoromethyl)-5-quinolyl]morpholine-2-carboxamide], the concentration for half-maximal inhibition (IC50) on human TLR7 came to 5 nM. Also, the solubility (thermodynamic) in “LYSA solubility assay” is greater than 597 µg/mL.

As for `C[C@@H]1CN(c2ccc(C(F)(F)F)c3ncccc23)C[C@H](C(=O)NC2CC3CCC(C2)N3)O1` (single isomer, unassigned) [Example 47A], at human TLR7, the half-maximal inhibitory concentration (IC50) was less than 3 nM. The same compound displayed a solubility (thermodynamic) in “LYSA solubility assay” greater than 620 µg/mL.

On human TLR7, `C[C@@H]1CN(c2ccc([N+](=O)[O-])c3ncccc23)C[C@H](C(=O)N[C@@H]2CNC[C@@H]2F)O1` [Example 19, cis-(2R,6R)-N-[41-fluoropyrrolidin-3-yl]-6-methyl-4-(8-nitro-5-quinolyl)morpholine-2-carboxamide] displayed an IC50 of 14 nM. This compound also displayed a solubility (thermodynamic) in the series “LYSA solubility assay” greater than 510 µg/mL.

As to `C[C@@H]1CN(c2ccc(I)c3ncccc23)C[C@H](C(=O)NCC2CN(C)CCO2)O1` (stereo partly drawn) [Example 39, (2R,6R)-4-(8-iodo-5-quinolyl)-6-methyl-N-[(4-methylmorpholin-2-yl)methyl]morpholine-2-carboxamide], the IC50 against human TLR7 was 7 nM. The same compound came in with a thermodynamic solubility in “LYSA solubility assay” greater than 625 µg/mL.

At human TLR7, `Cc1ccc(N2C[C@@H](C)O[C@@H](C(=O)NCC3CN(C)CCO3)C2)c2cccnc12` (stereo partly drawn) [Example 17, (2R,6R)-6-methyl-N-[(4-methylmorpholin-2-yl)methyl]-4-(8-methyl-5-quinolyl)morpholine-2-carboxamide] came in with a half-maximal inhibitory concentration (IC50) of 140 nM. Moreover, the solubility (thermodynamic) in the series “LYSA solubility assay” was greater than 485 µg/mL.

Consider `C[C@@H]1CN(c2ccc(I)c3ncccc23)C[C@H](C(=O)NC2CNCC2F)O1` (stereo partly drawn) [Example 40, cis-(2R,6R)-N-[4-fluoropyrrolidin-3-yl]-4-(8-iodo-5-quinolyl)-6-methyl-morpholine-2-carboxamide], for which the IC50 at human TLR7 was found to be 15 nM. In addition, the thermodynamic solubility in the series “LYSA solubility assay” came to 555 µg/mL (≈ 1150 µM).

With `C[C@@H]1CN(c2ccc(C(F)(F)F)c3ncccc23)C[C@H](C(=O)NC2CC3CNCC32)O1` (single isomer, unassigned) [Example 49A], on human TLR7, the half-inhibitory concentration (IC50) worked out at 25 nM. In the series “LYSA solubility assay”, the thermodynamic solubility is greater than 660 µg/mL.

In the case of `C[C@@H]1CN(c2ccc(C(F)(F)F)c3ncccc23)C[C@H](C(=O)NC2CC3CNCC32)O1` (single isomer, unassigned) [Example 49C], on human TLR7, the IC50 is 8 nM. For the same compound, the LYSA in “LYSA solubility assay” (0.05 M phosphate buffer (pH 6.5)) is greater than 710.0 µg/mL.
